Where “and” joins values, the source holds several entries; their conditions need not be identical. Equal entries are not always repeated.
Columns and labels:
Format in all cases: cell-based
[1] = biological target: T1, 320 non-olfactory GPCRs (Homo sapiens, UniProt O00398); conditions: receptor P2RY10; replicate values, Fig_4g
T1 construct: expressed in transfected cells; host or cells: HTLA cells

[2] = biological target: T2, 320 non-olfactory GPCRs (Homo sapiens, UniProt P24530)
T2 construct: expressed in transfected cells; host or cells: HTLA cells

[3] = biological target: 320 non-olfactory GPCRs (Homo sapiens, UniProt P35462)
[4] = biological target: T3, 320 non-olfactory GPCRs (Homo sapiens, UniProt Q8TDS7); conditions: receptor MRGPRD; replicate values, Fig_4g
T3 construct: expressed in transfected cells; host or cells: HTLA cells
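For Fold of Basal in this document: compound tested at 1 µM final concentration.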
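For GPCRome agonism screen response in this document: fold over basal response of each receptor without drug.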

Sequence of 320 non-olfactory GPCRs (Homo sapiens, UniProt P35462) (P35462 whole entry): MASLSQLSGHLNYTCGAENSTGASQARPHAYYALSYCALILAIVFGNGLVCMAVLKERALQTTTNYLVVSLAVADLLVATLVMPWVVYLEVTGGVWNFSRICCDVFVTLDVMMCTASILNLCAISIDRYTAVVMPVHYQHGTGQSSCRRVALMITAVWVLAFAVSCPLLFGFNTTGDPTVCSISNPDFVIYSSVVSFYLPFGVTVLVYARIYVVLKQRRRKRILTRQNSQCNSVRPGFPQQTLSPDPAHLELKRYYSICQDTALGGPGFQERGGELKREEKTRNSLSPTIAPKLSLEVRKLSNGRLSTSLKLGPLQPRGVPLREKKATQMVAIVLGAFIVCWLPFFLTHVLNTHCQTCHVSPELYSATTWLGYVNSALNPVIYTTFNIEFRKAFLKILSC
T3 sequence (Q8TDS7 whole entry): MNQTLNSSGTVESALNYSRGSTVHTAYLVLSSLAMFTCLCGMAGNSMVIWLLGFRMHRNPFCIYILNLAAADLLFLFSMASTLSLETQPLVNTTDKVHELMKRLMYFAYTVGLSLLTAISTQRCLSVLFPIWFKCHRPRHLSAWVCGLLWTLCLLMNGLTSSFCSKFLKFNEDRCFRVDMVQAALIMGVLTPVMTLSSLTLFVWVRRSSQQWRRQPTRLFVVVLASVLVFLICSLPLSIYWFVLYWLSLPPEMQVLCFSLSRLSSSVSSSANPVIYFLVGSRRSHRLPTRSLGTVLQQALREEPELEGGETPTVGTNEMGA
T1 sequence (O00398 whole entry): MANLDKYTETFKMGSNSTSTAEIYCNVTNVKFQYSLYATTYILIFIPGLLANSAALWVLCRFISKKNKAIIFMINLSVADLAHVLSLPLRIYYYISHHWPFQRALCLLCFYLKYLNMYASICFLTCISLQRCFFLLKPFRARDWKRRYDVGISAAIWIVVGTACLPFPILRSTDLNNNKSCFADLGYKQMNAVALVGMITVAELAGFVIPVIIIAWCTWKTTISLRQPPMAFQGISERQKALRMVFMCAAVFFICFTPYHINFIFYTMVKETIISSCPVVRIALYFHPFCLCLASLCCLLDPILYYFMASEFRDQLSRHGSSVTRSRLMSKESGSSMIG
T2 sequence (P24530 27-442): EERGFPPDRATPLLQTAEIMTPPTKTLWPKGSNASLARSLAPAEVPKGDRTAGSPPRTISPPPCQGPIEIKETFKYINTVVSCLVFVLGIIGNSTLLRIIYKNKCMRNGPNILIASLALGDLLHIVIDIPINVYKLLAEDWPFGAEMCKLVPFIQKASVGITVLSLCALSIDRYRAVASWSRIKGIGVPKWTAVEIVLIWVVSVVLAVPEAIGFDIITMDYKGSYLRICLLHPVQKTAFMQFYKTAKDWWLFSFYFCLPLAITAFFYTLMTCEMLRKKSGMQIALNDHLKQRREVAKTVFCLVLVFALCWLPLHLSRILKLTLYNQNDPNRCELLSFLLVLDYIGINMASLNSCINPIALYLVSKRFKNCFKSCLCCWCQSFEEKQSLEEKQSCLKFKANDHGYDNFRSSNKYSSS

Question: Which results are given for `CCOc1cccc2cc(C(C)NCC3(O)CCCCC3)oc12` (stereo not shown) [O4LE6]?
Answer: GPCRome agonism screen response [1]: 0.6744 and 0.6284 and 0.7052 and 0.972; Fold of Basal [2]: 0.7302 and 0.8478 and 0.8324 and 1.412; Fold of Basal [3]: 9.324 and 11.1304 and 9.776 and 11.3977; GPCRome agonism screen response [4]: 1.227 and 0.5077 and 1.775 and 0.8477
